# Tested on: Transport facilitation protein genes
# Test: DNA chip mRNA expression in yeast, transport facilitation protein genes (Table 5)
# Format: cell-based, Saccharomyces cerevisiae S288C
# In short: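 Value is the scanned fluorescence intensity ratio of exposed versus chemical-free cells. Log-phase S288C yeast in YPD at 25° C. received one toxic substance for two hours, dosed to slow growth without killing; Cy3/Cy5-labeled cDNA from oligo-dT-purified mRNA was hybridized to a whole-genome chip at 65° C.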
structure (smiles),measurement,setting,value
"Cl[C@H]1[C@H](Cl)[C@@H](Cl)[C@@H](Cl)[C@H](Cl)[C@H]1Cl [(7), γ-hexachlorocyclohexane]",The level of expressed mRNA in the presence of chemical substance/The level of expressed mRNA in the absence of chemical substance,yeast gene YGR260W,0.9
same,The level of expressed mRNA in the presence of chemical substance/The level of expressed mRNA in the absence of chemical substance,yeast gene YGR281W,0.9
same,The level of expressed mRNA in the presence of chemical substance/The level of expressed mRNA in the absence of chemical substance,yeast gene YHL035C,1.7
same,The level of expressed mRNA in the presence of chemical substance/The level of expressed mRNA in the absence of chemical substance,yeast gene YHL040C,4.0
same,The level of expressed mRNA in the presence of chemical substance/The level of expressed mRNA in the absence of chemical substance,yeast gene YHL047C,16.8
same,The level of expressed mRNA in the presence of chemical substance/The level of expressed mRNA in the absence of chemical substance,yeast gene YHR026W,0.9
same,The level of expressed mRNA in the presence of chemical substance/The level of expressed mRNA in the absence of chemical substance,yeast gene YHR092C,0.5
same,The level of expressed mRNA in the presence of chemical substance/The level of expressed mRNA in the absence of chemical substance,yeast gene YHR094C,0.8
same,The level of expressed mRNA in the presence of chemical substance/The level of expressed mRNA in the absence of chemical substance,yeast gene YHR175W,1.6
same,The level of expressed mRNA in the presence of chemical substance/The level of expressed mRNA in the absence of chemical substance,yeast gene YIL006W,0.8
same,The level of expressed mRNA in the presence of chemical substance/The level of expressed mRNA in the absence of chemical substance,yeast gene YIL022W,0.7
same,The level of expressed mRNA in the presence of chemical substance/The level of expressed mRNA in the absence of chemical substance,yeast gene YIL056W,0.6
same,The level of expressed mRNA in the presence of chemical substance/The level of expressed mRNA in the absence of chemical substance,yeast gene YIL088C,1.7
same,The level of expressed mRNA in the presence of chemical substance/The level of expressed mRNA in the absence of chemical substance,yeast gene YJL034W,1.3
same,The level of expressed mRNA in the presence of chemical substance/The level of expressed mRNA in the absence of chemical substance,yeast gene YJL212C,0.7
same,The level of expressed mRNA in the presence of chemical substance/The level of expressed mRNA in the absence of chemical substance,yeast gene YJL219W,0.9
same,The level of expressed mRNA in the presence of chemical substance/The level of expressed mRNA in the absence of chemical substance,yeast gene YJR077C,0.7
same,The level of expressed mRNA in the presence of chemical substance/The level of expressed mRNA in the absence of chemical substance,yeast gene YJR106W,1.0
same,The level of expressed mRNA in the presence of chemical substance/The level of expressed mRNA in the absence of chemical substance,yeast gene YJR121W,1.0
same,The level of expressed mRNA in the presence of chemical substance/The level of expressed mRNA in the absence of chemical substance,yeast gene YKL016C,1.5
same,The level of expressed mRNA in the presence of chemical substance/The level of expressed mRNA in the absence of chemical substance,yeast gene YKL146W,0.9
same,The level of expressed mRNA in the presence of chemical substance/The level of expressed mRNA in the absence of chemical substance,yeast gene YKR039W,1.0
same,The level of expressed mRNA in the presence of chemical substance/The level of expressed mRNA in the absence of chemical substance,yeast gene YKR067W,2.0
same,The level of expressed mRNA in the presence of chemical substance/The level of expressed mRNA in the absence of chemical substance,yeast gene YLL028W,1.0
same,The level of expressed mRNA in the presence of chemical substance/The level of expressed mRNA in the absence of chemical substance,yeast gene YLR081W,0.7
same,The level of expressed mRNA in the presence of chemical substance/The level of expressed mRNA in the absence of chemical substance,yeast gene YLR295C,1.1
same,The level of expressed mRNA in the presence of chemical substance/The level of expressed mRNA in the absence of chemical substance,yeast gene YLR348C,0.9
same,The level of expressed mRNA in the presence of chemical substance/The level of expressed mRNA in the absence of chemical substance,yeast gene YLR378C,0.7
same,The level of expressed mRNA in the presence of chemical substance/The level of expressed mRNA in the absence of chemical substance,yeast gene YMR011W,0.8
same,The level of expressed mRNA in the presence of chemical substance/The level of expressed mRNA in the absence of chemical substance,yeast gene YMR162C,0.8
same,The level of expressed mRNA in the presence of chemical substance/The level of expressed mRNA in the absence of chemical substance,yeast gene YMR203W,0.8
same,The level of expressed mRNA in the presence of chemical substance/The level of expressed mRNA in the absence of chemical substance,yeast gene YNL055C,1.2
same,The level of expressed mRNA in the presence of chemical substance/The level of expressed mRNA in the absence of chemical substance,yeast gene YNL259C,3.8
same,The level of expressed mRNA in the presence of chemical substance/The level of expressed mRNA in the absence of chemical substance,yeast gene YNR072W,1.5
same,The level of expressed mRNA in the presence of chemical substance/The level of expressed mRNA in the absence of chemical substance,yeast gene YOL119C,2.2
same,The level of expressed mRNA in the presence of chemical substance/The level of expressed mRNA in the absence of chemical substance,yeast gene YOL156W,1.0
same,The level of expressed mRNA in the presence of chemical substance/The level of expressed mRNA in the absence of chemical substance,yeast gene YOL163W,0.9
same,The level of expressed mRNA in the presence of chemical substance/The level of expressed mRNA in the absence of chemical substance,yeast gene YOR035C,1.3
same,The level of expressed mRNA in the presence of chemical substance/The level of expressed mRNA in the absence of chemical substance,yeast gene YOR130C,1.3
same,The level of expressed mRNA in the presence of chemical substance/The level of expressed mRNA in the absence of chemical substance,yeast gene YOR153W,2.6
same,The level of expressed mRNA in the presence of chemical substance/The level of expressed mRNA in the absence of chemical substance,yeast gene YOR270C,1.0
same,The level of expressed mRNA in the presence of chemical substance/The level of expressed mRNA in the absence of chemical substance,yeast gene YOR273C,0.4
same,The level of expressed mRNA in the presence of chemical substance/The level of expressed mRNA in the absence of chemical substance,yeast gene YOR316C,1.4
same,The level of expressed mRNA in the presence of chemical substance/The level of expressed mRNA in the absence of chemical substance,yeast gene YOR332W,0.9
same,The level of expressed mRNA in the presence of chemical substance/The level of expressed mRNA in the absence of chemical substance,yeast gene YOR348C,0.8
same,The level of expressed mRNA in the presence of chemical substance/The level of expressed mRNA in the absence of chemical substance,yeast gene YPL036W,0.3
same,The level of expressed mRNA in the presence of chemical substance/The level of expressed mRNA in the absence of chemical substance,yeast gene YPL134C,1.2
same,The level of expressed mRNA in the presence of chemical substance/The level of expressed mRNA in the absence of chemical substance,yeast gene YPL271W,1.2
same,The level of expressed mRNA in the presence of chemical substance/The level of expressed mRNA in the absence of chemical substance,yeast gene YPR192W,0.9
same,The level of expressed mRNA in the presence of chemical substance/The level of expressed mRNA in the absence of chemical substance,yeast gene YPR194C,0.7

# Source: patent US8192962B2, “Processes for detecting toxic substances” (Daikin Industries, Ltd., priority 2001, dated 2012)
